From US20050032873A1, “3-Amino chroman and 2-amino tetralin derivatives” (Wyeth, priority 2003, published 2005)
Like-named read-outs stand apart in the source and are kept apart here.

How the values were obtained:
[1] = target: T1, serotonin transporter (Rattus norvegicus, UniProt P31652); assay: 5-HT transporter affinity: displacement of 3H-paroxetine from male rat cortical membranes; format: binding; conditions: displacement of 3H-paroxetine, male rat cortical membranes
T1 construct: displace ^3H-paroxetine from male rat cortical membranes; from tissue; host or cells: male rat cortical membranes

[2] = target: T2, 5-HT1A receptor (Homo sapiens, UniProt P08908); assay: cAMP accumulation assay, 5-HT1A function; format: cell-based; conditions: for IC50: cells marked IC50 (antagonist), read-out: 5-HT1A Function cAMP IC50; for Emax / 5-HT1A Function cAMP (Emax): in brackets after EC50 or IC50; for Emax: read-out: 5-HT1A Function cAMP (Emax); for EC50: cells marked EC50 (agonist)
T2 sequence (P08908 1-422): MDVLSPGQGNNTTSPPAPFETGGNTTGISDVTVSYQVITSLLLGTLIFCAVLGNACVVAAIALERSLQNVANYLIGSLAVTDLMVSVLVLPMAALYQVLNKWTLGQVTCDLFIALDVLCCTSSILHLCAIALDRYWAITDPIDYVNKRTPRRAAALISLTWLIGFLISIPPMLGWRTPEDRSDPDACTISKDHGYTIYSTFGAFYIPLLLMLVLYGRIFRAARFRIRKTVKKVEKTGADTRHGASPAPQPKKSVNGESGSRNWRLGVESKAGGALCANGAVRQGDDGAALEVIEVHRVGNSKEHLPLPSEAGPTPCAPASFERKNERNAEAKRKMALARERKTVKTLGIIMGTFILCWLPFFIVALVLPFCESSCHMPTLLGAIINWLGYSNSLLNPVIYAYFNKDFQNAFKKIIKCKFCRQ

[3] = target: T3, cloned human 5-HT1A receptors (Homo sapiens, UniProt P08908); assay: 35S-GTPγS binding assay, 5-HT1A function; format: biochemical; conditions: for IC50: antagonist potency, reversal of 8-OH-DPAT, read-out: 5-HT1A Function GTPγS IC50; for EC50: agonist potency
T3 construct: expressed in transfected cells
T3 sequence (P08908 1-422): T2 sequence (P08908 1-422)

[4] = target: T2, 5-HT1A receptor; assay: 5-HT1A receptor affinity: displacement of [3H] 8-OH-DPAT; format: binding; set-up: expressed in transfected cells; conditions: displacement of [3H] 8-OH-DPAT, CHO cells stably transfected with human 5-HT1A receptors
[5] = read-out: 5-HT Transporter Affinity Ki
[6] = maximum inhibitory effect, in brackets after IC50, read-out: 5-HT1A Function GTPγS (Imax)
[7] = read-out: 5-HT1A Receptor Affinity Ki
[8] = maximum inhibitory effect, in brackets after IC50
[9] = maximum stimulatory effect, in brackets after EC50, read-out: 5-HT1A Function GTPγS (Emax)

T1 sequence (P31652 whole entry): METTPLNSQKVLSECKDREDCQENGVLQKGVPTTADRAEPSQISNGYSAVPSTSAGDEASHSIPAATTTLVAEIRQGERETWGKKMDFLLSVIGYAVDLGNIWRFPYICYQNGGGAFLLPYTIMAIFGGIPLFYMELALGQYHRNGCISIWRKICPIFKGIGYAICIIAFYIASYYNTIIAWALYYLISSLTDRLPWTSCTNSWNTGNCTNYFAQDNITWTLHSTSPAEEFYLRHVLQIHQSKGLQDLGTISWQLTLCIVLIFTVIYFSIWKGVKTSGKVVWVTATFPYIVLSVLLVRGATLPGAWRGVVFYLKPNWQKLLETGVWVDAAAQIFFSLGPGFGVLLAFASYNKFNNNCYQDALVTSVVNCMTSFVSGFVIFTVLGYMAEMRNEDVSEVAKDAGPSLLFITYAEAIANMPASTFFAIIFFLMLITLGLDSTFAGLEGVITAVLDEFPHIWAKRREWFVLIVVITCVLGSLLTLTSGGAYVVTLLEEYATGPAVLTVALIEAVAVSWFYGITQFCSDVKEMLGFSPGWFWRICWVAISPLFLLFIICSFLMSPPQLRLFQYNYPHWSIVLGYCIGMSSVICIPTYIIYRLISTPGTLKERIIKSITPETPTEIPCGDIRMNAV

Compound	Ki [1, 5]	IC50 [2]	Emax [2]	IC50 [3]	Emax [3, 6]	Ki [4, 7]	EC50 [2]	5-HT1A Function cAMP (Emax) [2]	5-HT1A Function GTPγS (Imax) [3, 8]	EC50 [3]	Emax [3, 9]	Ki ([1]; 5-HT Transporter Affinity Ki (nM))	Ki ([4]; 5-HT1A Receptor Affinity Ki (nM))
NC(=O)c1ccc(F)c2c1C[C@@H](N(CCCCc1c[nH]c3ccc(F)cc13)C1CCC1)CO2 [Compound 83a, (3R)-3-{cyclobutyl[4-(5-fluoro-1H-indol-3-yl)butyl]amino}-8-fluorochromane-5-carboxamide]	13.2 nM	0.173 µM	0%	0.505 µM	100%	3.43 nM	–	–	–	–	–	–	–
CNC(=O)c1ccc(F)c2c1C[C@H](N(CCCCc1c[nH]c3ccc(F)cc13)C1CCC1)CO2 [Compound 145a, (3S)-3-{cyclobutyl[4-(5-fluoro-1H-indol-3-yl)butyl]amino}-8-fluoro-N-methylchromane-5-carboxamide]	16.1 nM	0.668 µM	0%	5.47 µM	100%	288 nM	–	–	–	–	–	–	–
CCNC(=O)c1ccc(F)c2c1CC(N(CCCc1c[nH]c3ccc(F)cc13)C1CCC1)CO2 (centres unmarked) [Compound 60, 3-{cyclobutyl[3-(5-fluoro-1H-indol-3-yl)propyl]amino}-N-ethyl-8-fluorochromane-5-carboxamide]	4.86 nM	0.116 µM	0%	1.4 µM	100%	17.8 nM	–	–	–	–	–	–	–
CCN(CCCc1c[nH]c2ccc(F)cc12)C1COc2c(F)ccc(C(N)=O)c2C1 (single isomer, unassigned; (+)) [Compound 3b, (+)-3-{ethyl[3-(5-fluoro-1H-indol-3-yl)propyl]amino}-8-fluoro-3,4-dihydro-2H-chromene-5-carboxamide]	4.5 nM	–	–	0.665 µM	–	15.5 nM	0.0314 µM	90.5%	35.8%	–	–	–	–
CCCN(CCc1c[nH]c2ccc(F)cc12)C1COc2cccc(OC)c2C1 (centres unmarked) [Compound 29, N-[2-(5-fluoro-1H-indol-3-yl)ethyl]-5-methoxy-N-propylchroman-3-amine]	27 nM	–	99%	–	–	7.32 nM	0.0771 µM	–	–	0.205 µM	70%	–	–
CNC(=O)c1ccc(F)c2c1CC(N(CCCc1c[nH]c3ccc(F)cc13)C1CCC1)CO2 (centres unmarked) [Compound 59, 3-{cyclobutyl[3-(5-fluoro-1H-indol-3-yl)propyl]amino}-8-fluoro-N-methylchromane-5-carboxamide]	5.05 nM	0.166 µM	0%	0.812 µM	100%	5.35 nM	–	–	–	–	–	–	–
COC(=O)c1ccc(F)c2c1CC(N(CCCc1c[nH]c3ccc(F)cc13)C1CCC1)CO2 (centres unmarked) [Compound 11, Methyl 3-{cyclobutyl[3-(5-fluoro-1H-indol-3-yl)propyl]amino}-8-fluorochromane-5-carboxylate]	161 nM	0.403 µM	0%	0.345 µM	62%	73.8 nM	–	–	–	–	–	–	–
CC(CCc1c[nH]c2c(F)cc(F)cc12)N(CC1CC1)C1COc2c(F)ccc(C(N)=O)c2C1 (single isomer, unassigned) [Compound 154c, 3-{(cyclopropylmethyl)[3-(5,7-difluoro-1H-indol-3-yl)-1-methylpropyl]amino}-8-fluorochromane-5-carboxamide]	67.5 nM	3.09 µM	0%	1.99 µM	–	24.8 nM	–	–	100%	–	–	–	–
CCN(CCc1c[nH]c2ccc(F)cc12)C1CCc2cccc(OC)c2C1 (centres unmarked) [Compound 49, N-ethyl-N-[2-(5-fluoro-1H-indol-3-yl)ethyl]-N-(8-methoxy-1,2,3,4-tetrahydronaphthalen-2-yl)amine]	–	–	93%	–	–	–	0.0355 µM	–	–	0.015 µM	88%	6.5 nM	7.62 nM
C[C@@H](CCN(C1CCC1)[C@@H]1COc2c(F)ccc(C(N)=O)c2C1)c1c[nH]c2ccc(F)cc12 [Compound 153b, (3S)-3-{cyclobutyl[(3S)-3-(5-fluoro-1H-indol-3-yl)butyl]amino}-8-fluorochromane-5-carboxamide]	122 nM	0.166 µM	0%	1.45 µM	64%	124 nM	–	–	–	–	–	–	–
CCCN(CCCc1c[nH]c2ccc(Cl)cc12)C1COc2c(F)ccc(C(N)=O)c2C1 (centres unmarked) [Compound 116, 3-[[3-(5-chloro-1H-indol-3-yl)propyl](propyl)amino]-8-fluorochromane-5-carboxamide]	151 nM	–	80%	0.843 µM	45%	1.45 nM	0.00782 µM	–	–	0.0612 µM	50%	–	–
O=C(NC1CCC1)c1ccc(F)c2c1CC(N(CCCc1c[nH]c3ccc(F)cc13)C1CCC1)CO2 (centres unmarked) [Compound 65, N-cyclobutyl-3-{cyclobutyl[3-(5-fluoro-1H-indol-3-yl)propyl]amino}-8-fluorochromane-5-carboxamide]	3.98 nM	0.358 µM	0%	0.0915 µM	48%	214 nM	–	–	–	–	–	–	–
NC(=O)c1cccc2c1C[C@H](NCCCc1c[nH]c3ccc(F)cc13)CO2 [Compound 133a, (3S)-3-{[3-(5-fluoro-1H-indol-3-yl)propyl]amino}chromane-5-carboxamide]	28.5 nM	–	53%	–	–	51.8 nM	0.128 µM	–	–	5 µM	60%	–	–
CCCN(C1COc2cccc(OC)c2C1)[C@H]1CC[C@@H](c2c[nH]c3ccc(F)cc32)CC1 (relative stereo) [Compound 182, cis-N-[4-(5-fluoro-1H-indol-3-yl)cyclohexyl]-5-methoxy-N-propylchroman-3-amine]	128 nM	–	65%	–	–	237 nM	0.184 µM	–	–	0.893 µM	64.5%	–	–
NC(=O)c1ccc(F)c2c1CC(N(CC1CCc3[nH]c4ccc(F)cc4c3C1)C1CCC1)CO2 (single isomer, unassigned; (-)) [Compound 174d, (−)-3-{cyclobutyl[(6-fluoro-2,3,4,9-tetrahydro-1H-carbazol-3-yl)methyl]amino}-8-fluorochromane-5-carboxamide]	322 nM	0.304 µM	–	4.75 µM	–	73.3 nM	–	0%	100%	–	–	–	–
CCN(CCCCc1coc2c(OC)cccc12)C1COc2c(F)ccc(C(N)=O)c2C1 (centres unmarked) [Compound 168, 3-{ethyl[4-(7-methoxy-1-benzofuran-3-yl)butyl]amino}-8-fluorochromane-5-carboxamide]	187 nM	0.0508 µM	0%	–	–	3.49 nM	–	–	–	0.243 µM	76%	–	–
CCCN(CCCc1c[nH]c2ccc(F)cc12)C1CCc2c(F)ccc(OC)c2C1 (centres unmarked) [Compound 51, N-[3-(5-fluoro-1H-indol-3-yl)propyl]-N-(5-fluoro-8-methoxy-1,2,3,4-tetrahydronaphthalen-2-yl)-N-propylamine]	2.42 nM	–	83%	–	–	11.4 nM	0.013 µM	–	–	0.0153 µM	95%	–	–
